From ChEMBL document CHEMBL1201862, “PubChem BioAssay data set” (2004)
Active and inactive are the calls of the source.

Assays:
Escherichia coli = experiment: microbe, parasite or virus in culture
[1] = molecular target: Delta-type opioid receptor (Homo sapiens, UniProt P41143); experiment: Counterscreen for agonists of heterodimerization of the mu 1 (OPRM1) and delta 1 (OPRD1) opioid receptors: Luminescence-based cell-based high throughput dose response assay to identify agonists of OPRD1 homodimerization. [Related pubchem assays (depositor defined):AID504326, AID504355, AID504692, AID504904, AID504905]; format: functional
Chain of Delta-type opioid receptor (P41143 whole entry): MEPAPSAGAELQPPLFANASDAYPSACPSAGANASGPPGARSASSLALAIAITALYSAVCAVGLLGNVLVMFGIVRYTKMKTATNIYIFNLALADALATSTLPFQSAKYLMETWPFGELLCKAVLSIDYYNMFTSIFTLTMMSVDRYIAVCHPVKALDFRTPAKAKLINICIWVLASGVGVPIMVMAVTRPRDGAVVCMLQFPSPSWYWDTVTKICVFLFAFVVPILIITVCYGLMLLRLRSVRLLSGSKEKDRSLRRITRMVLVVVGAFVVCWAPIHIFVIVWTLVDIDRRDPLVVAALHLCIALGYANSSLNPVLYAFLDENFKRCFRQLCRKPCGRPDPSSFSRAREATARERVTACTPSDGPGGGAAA

Mu-type opioid receptor = Mu-type opioid receptor (Homo sapiens, UniProt P35372); experiment: Counterscreen for agonists of heterodimerization of the mu 1 (OPRM1) and delta 1 (OPRD1) opioid receptors: Luminescence-based cell-based high throughput dose response assay to identify agonists of OPRM1 homodimerization.; format: functional;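 also: U2OS cells expressing OPRM1 and beta-arrestin as split beta-galactosidase partners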
Chain of Mu-type opioid receptor (P35372 whole entry): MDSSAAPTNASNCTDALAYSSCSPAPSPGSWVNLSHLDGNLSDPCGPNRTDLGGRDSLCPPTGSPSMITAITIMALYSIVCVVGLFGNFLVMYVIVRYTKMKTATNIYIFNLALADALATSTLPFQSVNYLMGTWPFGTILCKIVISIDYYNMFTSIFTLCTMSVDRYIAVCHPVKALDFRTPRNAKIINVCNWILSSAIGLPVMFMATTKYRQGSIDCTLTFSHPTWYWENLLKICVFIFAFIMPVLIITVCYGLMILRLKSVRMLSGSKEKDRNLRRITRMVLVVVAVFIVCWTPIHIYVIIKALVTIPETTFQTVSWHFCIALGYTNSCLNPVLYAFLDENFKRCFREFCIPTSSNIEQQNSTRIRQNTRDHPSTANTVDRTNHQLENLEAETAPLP

[2] = molecular target: 5-hydroxytryptamine receptor 5A (Homo sapiens, UniProt P47898); experiment: Counterscreen for agonists of OPRM1-OPRD1 heterodimerization: luminescence-based cell-based high throughput dose response assay to identify agonists of 5-hydroxytryptamine (serotonin) 5A receptor (HTR5A). [Related pubchem assays (depositor defined):AID504326, AID504355, AID504692, AID504904, AID504905]; format: functional
Chain of 5-hydroxytryptamine receptor 5A (P47898 whole entry): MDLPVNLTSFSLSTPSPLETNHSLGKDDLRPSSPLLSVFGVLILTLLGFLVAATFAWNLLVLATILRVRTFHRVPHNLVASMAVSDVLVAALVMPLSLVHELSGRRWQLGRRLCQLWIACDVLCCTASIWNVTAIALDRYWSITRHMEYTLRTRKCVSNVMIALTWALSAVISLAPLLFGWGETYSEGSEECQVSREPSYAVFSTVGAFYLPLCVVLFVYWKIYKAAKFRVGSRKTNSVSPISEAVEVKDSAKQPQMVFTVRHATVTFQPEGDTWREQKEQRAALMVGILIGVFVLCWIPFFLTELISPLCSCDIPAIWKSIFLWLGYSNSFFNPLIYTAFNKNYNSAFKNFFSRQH

[3] = molecular target: T1, Short transient receptor potential channel 4 (Mus musculus, UniProt Q9QUQ5); experiment: mouse TRPC4 channel inhibitors, dose response, cell-based, HEK293 TRPC4/mu-opioid, Fluo-4 calcium (AID 434942); format: functional;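 also: potency of inhibitors blocking the TRPC4 calcium response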
T1 sequence (Q9QUQ5 whole entry): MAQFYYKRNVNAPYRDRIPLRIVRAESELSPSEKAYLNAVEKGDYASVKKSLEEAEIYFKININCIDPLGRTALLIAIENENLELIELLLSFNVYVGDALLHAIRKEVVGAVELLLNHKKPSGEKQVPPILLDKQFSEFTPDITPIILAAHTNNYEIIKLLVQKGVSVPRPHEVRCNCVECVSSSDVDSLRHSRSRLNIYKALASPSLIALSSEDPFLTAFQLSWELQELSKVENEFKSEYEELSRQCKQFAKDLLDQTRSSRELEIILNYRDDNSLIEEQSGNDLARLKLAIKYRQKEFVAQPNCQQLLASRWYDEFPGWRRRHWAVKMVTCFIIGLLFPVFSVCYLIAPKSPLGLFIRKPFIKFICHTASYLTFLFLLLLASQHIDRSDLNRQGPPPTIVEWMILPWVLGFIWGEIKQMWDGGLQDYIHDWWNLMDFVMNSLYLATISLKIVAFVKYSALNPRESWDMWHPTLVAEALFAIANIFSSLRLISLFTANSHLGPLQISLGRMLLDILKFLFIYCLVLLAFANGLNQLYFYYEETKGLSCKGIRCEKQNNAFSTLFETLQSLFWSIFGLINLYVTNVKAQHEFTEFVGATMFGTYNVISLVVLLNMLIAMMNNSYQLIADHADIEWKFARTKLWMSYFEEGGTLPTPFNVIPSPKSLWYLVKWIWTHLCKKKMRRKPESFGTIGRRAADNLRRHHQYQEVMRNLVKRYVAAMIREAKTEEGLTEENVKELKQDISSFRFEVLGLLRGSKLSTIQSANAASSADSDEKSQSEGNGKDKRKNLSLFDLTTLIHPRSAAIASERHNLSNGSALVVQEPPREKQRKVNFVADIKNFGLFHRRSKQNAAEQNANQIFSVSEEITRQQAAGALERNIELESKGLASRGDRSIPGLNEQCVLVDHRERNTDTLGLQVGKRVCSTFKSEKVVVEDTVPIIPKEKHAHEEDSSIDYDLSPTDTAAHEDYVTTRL

[4] = molecular target: T2, Replicative DNA helicase DnaB (Mycobacterium tuberculosis, UniProt P9WMR3); experiment: DnaB intein splicing inhibitors, dose response, biochemical, cell-free fluorescence (AID 449749); format: functional
T2 sequence (P9WMR3 whole entry): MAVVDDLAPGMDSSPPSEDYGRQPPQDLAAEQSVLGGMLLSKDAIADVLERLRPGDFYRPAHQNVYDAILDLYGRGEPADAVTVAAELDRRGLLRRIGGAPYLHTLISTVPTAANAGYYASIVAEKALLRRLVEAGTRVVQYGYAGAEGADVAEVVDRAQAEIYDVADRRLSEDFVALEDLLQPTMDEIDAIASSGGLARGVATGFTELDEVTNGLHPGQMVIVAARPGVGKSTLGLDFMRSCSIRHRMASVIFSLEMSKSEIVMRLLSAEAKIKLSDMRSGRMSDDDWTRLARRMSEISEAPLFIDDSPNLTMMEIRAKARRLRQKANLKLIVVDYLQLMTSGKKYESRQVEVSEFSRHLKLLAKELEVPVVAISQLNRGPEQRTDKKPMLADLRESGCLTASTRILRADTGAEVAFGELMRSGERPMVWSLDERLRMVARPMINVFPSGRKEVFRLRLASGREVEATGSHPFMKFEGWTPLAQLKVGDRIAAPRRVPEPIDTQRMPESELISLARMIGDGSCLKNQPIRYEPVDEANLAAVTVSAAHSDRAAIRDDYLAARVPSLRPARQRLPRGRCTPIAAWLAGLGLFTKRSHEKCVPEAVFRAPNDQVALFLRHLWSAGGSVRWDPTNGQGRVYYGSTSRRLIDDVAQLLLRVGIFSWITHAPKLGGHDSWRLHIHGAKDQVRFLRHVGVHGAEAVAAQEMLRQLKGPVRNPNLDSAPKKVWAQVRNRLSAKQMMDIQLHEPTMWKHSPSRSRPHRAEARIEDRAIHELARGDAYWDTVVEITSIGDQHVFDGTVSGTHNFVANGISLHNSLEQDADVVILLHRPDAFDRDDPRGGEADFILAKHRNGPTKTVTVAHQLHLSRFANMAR

[5] = molecular target: T3, Microphthalmia-associated transcription factor (Homo sapiens, UniProt O75030); experiment: TRPM1 promoter luciferase signal decrease, dose response, MITF inhibitor project, cell-based, SK-MEL-5, cherry-picked, set 3 (AID 493073); format: functional
T3 sequence (O75030 whole entry): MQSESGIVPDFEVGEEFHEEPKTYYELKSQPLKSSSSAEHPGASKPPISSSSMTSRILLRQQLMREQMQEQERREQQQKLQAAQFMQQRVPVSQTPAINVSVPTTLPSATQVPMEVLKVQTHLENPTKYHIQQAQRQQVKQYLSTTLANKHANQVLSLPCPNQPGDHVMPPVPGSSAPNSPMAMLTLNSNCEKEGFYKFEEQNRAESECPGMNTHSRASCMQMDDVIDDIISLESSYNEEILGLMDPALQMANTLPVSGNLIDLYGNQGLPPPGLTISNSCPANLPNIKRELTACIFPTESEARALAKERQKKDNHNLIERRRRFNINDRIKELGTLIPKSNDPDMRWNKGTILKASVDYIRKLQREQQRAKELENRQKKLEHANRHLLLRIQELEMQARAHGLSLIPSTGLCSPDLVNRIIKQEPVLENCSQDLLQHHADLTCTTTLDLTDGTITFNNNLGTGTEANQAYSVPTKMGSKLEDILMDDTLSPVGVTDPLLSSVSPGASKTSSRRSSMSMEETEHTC

cells [6] = format: functional, cell-based
Protein RecA = molecular target: T4, Protein RecA (Mycobacterium tuberculosis, UniProt P9WHJ3); experiment: Fluorescence Cell-Free Homogeneous Dose Retest to Identify Inhibitors of RecA-Intein Splicing Activity. [Related pubchem assays (depositor defined):AID2097, AID2223, AID489010, AID492950]; format: functional
T4 sequence (P9WHJ3 whole entry): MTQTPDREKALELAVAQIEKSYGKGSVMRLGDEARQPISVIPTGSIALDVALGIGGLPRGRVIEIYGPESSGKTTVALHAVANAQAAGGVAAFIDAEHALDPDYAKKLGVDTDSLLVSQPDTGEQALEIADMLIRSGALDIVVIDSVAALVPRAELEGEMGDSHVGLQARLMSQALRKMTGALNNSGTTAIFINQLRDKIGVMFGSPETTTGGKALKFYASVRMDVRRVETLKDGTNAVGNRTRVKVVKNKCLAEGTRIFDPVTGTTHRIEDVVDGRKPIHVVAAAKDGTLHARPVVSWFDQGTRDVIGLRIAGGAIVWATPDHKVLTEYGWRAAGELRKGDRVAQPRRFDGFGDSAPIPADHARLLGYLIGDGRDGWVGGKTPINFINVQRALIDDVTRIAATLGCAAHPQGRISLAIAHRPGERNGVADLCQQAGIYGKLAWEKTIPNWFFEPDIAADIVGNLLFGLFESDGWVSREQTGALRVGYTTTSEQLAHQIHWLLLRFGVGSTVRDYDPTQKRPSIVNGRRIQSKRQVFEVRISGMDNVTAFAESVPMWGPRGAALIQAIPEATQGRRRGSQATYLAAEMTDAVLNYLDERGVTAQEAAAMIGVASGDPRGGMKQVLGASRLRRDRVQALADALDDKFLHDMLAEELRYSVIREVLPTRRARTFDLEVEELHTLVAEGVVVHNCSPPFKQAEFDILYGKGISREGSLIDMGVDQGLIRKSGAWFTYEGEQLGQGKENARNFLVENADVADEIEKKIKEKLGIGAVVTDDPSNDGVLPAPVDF

HEK293 [7] = experiment: cells; settings: Homo sapiens
cells [8] = format: functional, cell-based; remark: listed apart in the source
Hexokinase HKDC1 = molecular target: T5, Hexokinase HKDC1 (Homo sapiens, UniProt Q2TB90); experiment: HKDC1 hexokinase inhibitors, dose response, biochemical, W721R variant (AID 504729); format: functional
T5 sequence (Q2TB90 whole entry): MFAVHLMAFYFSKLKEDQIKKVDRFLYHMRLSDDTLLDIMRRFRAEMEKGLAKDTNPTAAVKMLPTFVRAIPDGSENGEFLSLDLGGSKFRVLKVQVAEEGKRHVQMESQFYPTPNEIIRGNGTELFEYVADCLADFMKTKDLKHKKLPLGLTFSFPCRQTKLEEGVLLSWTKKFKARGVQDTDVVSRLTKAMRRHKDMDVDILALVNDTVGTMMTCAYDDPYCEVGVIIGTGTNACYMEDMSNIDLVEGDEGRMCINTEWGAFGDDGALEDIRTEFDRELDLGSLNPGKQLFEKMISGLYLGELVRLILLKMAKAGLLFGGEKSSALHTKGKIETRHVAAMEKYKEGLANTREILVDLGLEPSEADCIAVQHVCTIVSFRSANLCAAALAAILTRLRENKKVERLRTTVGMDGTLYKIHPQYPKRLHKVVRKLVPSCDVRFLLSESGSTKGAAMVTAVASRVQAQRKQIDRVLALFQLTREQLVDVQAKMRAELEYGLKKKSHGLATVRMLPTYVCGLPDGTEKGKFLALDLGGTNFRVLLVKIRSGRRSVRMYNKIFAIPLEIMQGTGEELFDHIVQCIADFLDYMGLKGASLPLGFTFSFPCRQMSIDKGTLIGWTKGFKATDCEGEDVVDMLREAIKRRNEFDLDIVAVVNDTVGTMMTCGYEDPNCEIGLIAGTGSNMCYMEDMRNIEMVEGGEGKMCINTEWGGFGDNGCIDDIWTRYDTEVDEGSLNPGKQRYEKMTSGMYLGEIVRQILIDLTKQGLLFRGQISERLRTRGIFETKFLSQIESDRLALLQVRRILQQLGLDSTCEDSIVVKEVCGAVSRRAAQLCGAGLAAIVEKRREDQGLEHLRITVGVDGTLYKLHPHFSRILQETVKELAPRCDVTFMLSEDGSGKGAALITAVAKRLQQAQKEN

HEK293 [9] = experiment: cells; settings: Homo sapiens; remark: listed apart in the source
[10] = molecular target: SWI/SNF-related matrix-associated actin-dependent regulator of chromatin subfamily A member 2 (Homo sapiens, UniProt P51531); experiment: Luminescence-based cell-based high throughput dose response assay to identify activators of the function of SWI/SNF related, matrix associated, actin dependent regulator of chromatin, subfamily a, member 2 (SMARCA2, BRM).; format: functional
Chain of SWI/SNF-related matrix-associated actin-dependent regulator of chromatin subfamily A member 2 (P51531 whole entry): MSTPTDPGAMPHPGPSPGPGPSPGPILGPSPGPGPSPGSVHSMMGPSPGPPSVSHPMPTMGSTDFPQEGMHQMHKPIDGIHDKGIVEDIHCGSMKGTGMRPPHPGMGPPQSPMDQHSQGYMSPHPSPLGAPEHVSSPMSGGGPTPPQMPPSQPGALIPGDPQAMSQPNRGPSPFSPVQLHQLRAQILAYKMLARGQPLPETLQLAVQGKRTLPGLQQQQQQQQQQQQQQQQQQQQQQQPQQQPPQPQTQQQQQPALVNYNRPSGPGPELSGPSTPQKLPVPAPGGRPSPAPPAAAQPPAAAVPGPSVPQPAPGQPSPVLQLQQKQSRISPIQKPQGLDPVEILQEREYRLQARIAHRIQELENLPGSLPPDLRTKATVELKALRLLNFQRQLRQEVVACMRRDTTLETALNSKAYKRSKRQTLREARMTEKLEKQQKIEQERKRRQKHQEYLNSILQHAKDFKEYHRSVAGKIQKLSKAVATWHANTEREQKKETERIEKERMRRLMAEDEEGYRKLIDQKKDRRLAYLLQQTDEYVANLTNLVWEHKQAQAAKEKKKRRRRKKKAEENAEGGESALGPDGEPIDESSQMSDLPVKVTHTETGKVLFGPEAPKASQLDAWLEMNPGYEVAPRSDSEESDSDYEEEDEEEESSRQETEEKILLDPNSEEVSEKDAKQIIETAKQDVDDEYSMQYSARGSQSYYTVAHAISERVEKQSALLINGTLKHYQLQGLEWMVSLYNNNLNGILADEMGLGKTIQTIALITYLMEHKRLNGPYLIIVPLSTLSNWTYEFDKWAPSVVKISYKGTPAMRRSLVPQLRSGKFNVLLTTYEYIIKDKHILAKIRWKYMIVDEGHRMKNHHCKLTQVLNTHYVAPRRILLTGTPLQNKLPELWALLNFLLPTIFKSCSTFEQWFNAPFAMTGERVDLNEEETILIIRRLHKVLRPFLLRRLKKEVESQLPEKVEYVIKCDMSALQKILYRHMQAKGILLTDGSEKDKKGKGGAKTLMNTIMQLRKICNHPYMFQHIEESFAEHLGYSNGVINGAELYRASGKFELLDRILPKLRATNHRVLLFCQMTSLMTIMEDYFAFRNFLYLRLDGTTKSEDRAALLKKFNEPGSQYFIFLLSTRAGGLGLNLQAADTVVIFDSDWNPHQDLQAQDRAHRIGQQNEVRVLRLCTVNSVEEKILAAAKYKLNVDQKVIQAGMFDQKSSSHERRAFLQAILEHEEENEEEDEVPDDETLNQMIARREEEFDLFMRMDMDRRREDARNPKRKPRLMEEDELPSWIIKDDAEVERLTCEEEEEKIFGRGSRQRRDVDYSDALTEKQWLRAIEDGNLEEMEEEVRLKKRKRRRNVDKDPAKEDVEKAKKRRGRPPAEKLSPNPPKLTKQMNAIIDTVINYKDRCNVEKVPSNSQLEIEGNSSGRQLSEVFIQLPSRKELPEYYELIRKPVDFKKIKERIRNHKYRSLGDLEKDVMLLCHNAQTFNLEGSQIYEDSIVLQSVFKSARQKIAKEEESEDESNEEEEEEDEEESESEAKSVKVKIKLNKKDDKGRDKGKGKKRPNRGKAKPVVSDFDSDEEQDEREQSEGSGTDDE

[11] = Counterscreen for activators of the function of SWI/SNF related, matrix associated, actin dependent regulator of chromatin, subfamily a, member 2 (SMARCA2, BRM): Luminescence-based cell-based high throughput dose response assay to identify non-selective compounds using the VP16 reporter assay.; format: functional

c1ccc(C2NCc3ccccc3-n3cccc32)cc1 (stereo not drawn)
AC50 (Escherichia coli): > 150 µM (inactive)

CCOC(=O)C1(CCc2ccccc2)CCN(Cc2ccco2)CC1
EC50 [1]: > 92.5 µM (inactive) | EC50 (Mu-type opioid receptor): > 92.5 µM (inactive) | EC50 [2]: > 92.5 µM (inactive) | EC50 [3]: 1.19 µM (active)

COc1ccc(-n2c(C)cc(C(=O)CCl)c2C)cc1
AC50 [4]: 22.9 µM (active) | AC50 [5]: 6.44 µM (active) | EC50 (cells [6]): > 350 µM (not active) | EC50 (Protein RecA): 19 µM (active) | EC50 (HEK293 [7]): > 59.7 µM (inactive) | EC50 (cells [8]): > 350 µM (not active) | IC50 (Hexokinase HKDC1): 27 µM (inactive) | EC50 (HEK293 [9]): > 59.7 µM (inactive)

Cc1nn(-c2ccccc2)c(C)c1NC(=O)COC(=O)c1ccc(Cl)c(S(N)(=O)=O)c1
AC50 (Escherichia coli): 28.1 µM (active)

O=C1C2C3C=CC(C4CC34)C2C(=O)N1/N=C/c1ccc([N+](=O)[O-])o1 (stereo not drawn)
EC50 (HEK293 [7]): > 59.6 µM (inactive) | EC50 [10]: > 91.1 µM (inactive) | EC50 (HEK293 [9]): > 59.6 µM (inactive) | EC50 [11]: > 91.1 µM (inactive)
